# What was measured:
# [1] = background statement; cited from earlier work
# [2] = system: Hot Plate Analgesometer in rats; assay: Central analgesic activity, hot plate (55° C) in rats; set-up: species or system Albino rats; settings: rat, in vivo
Compound,solubility in water (in words) [1],also measured
Cc1ccc(-c2cc(C(F)(F)F)nn2-c2ccc(S(N)(=O)=O)cc2)cc1 [Celecoxib],poorly soluble in water,
COc1ccc(-c2cc(C(F)F)nn2-c2ccc(S(N)(=O)=O)cc2)cc1F [Deracoxib],poorly soluble in water,
CC(C)=CCN1CCC2(C)c3cc(O)ccc3CC1C2C (centres unmarked) [Pentazocin],,% Increase in Reaction Time (IRT) [2]: 92.85%; Basal Reaction Time (BRT) [2]: 6.33 ± 0.41 s; Latent Reaction Time (LRT) [2]: 11.66 ± 1.60 s
CS(=O)(=O)c1ccc(C2=C(c3ccccc3)C(=O)OC2)cc1 [Rofecoxib],poorly soluble in water,
Cc1onc(-c2ccccc2)c1-c1ccc(S(N)(=O)=O)cc1 [Valdecoxib],poorly soluble in water,
Itacoxib,poorly soluble in water,

# From patent US6589973B1, “Preparation of selective cyclooxygenase II inhibitors” (THEMIS Medicare Ltd., priority 2002, dated 2003)
